# Source: US7709636B2, “Pyrazole sulfonylurea compound and herbicide” (Nissan Chemical Industries, Ltd., priority 2004, dated 2010)
# Columns and labels:
# Ambrosia elatior [1] = experiment: Herbicidal effect test by soil treatment; format: in vivo; conditions: 1.6 g/a, 3 weeks after treatment
# In short: (§1)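 Pre-emergence soil application: wettable powder formulation, water-diluted to set dose, sprayed evenly over soil surface after sowing; seeds under ~1.5 cm sterilized diluvial soil. Effect rated at 3 wk by criteria scale.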
# Setaria viridis [2] = experiment: Herbicidal effect test by soil treatment; format: in vivo; conditions: 1.6 g/a, 3 weeks after treatment
# In short: as §1
# Digitaria adscendes [3] = experiment: Herbicidal effect test by soil treatment; format: in vivo; conditions: 1.6 g/a, 3 weeks after treatment
# In short: as §1
# soybean (Glycine max) [4] = experiment: Herbicidal effect test by soil treatment; format: in vivo; conditions: 1.6 g/a, 3 weeks after treatment
# In short: as §1
# Chenopodium album [5] = experiment: Herbicidal effect test by soil treatment; format: in vivo; conditions: 1.6 g/a, 3 weeks after treatment
# In short: as §1
# Polygonum blumei [6] = experiment: Herbicidal effect test by soil treatment; format: in vivo; conditions: 1.6 g/a, 3 weeks after treatment
# In short: as §1
# Echinochloa crus-galli [7] = experiment: Herbicidal effect test by soil treatment; format: in vivo; conditions: 1.6 g/a, 3 weeks after treatment
# In short: as §1
# Stellaria media [8] = experiment: Herbicidal effect test by soil treatment; format: in vivo; conditions: 1.6 g/a, 3 weeks after treatment
# In short: as §1
# Amaranthus retroflexus [9] = experiment: Herbicidal effect test by soil treatment; format: in vivo; conditions: 1.6 g/a, 3 weeks after treatment
# In short: as §1
# Avena fatua [10] = experiment: Herbicidal effect test by soil treatment; format: in vivo; conditions: 1.6 g/a, 3 weeks after treatment
# In short: as §1
# Beta vulgaris (beet) [11] = experiment: Herbicidal effect test by soil treatment; format: in vivo; conditions: 1.6 g/a, 3 weeks after treatment
# In short: as §1
# Abutilon avicennae [12] = experiment: Herbicidal effect test by soil treatment; format: in vivo; conditions: 1.6 g/a, 3 weeks after treatment
# In short: as §1
# Black-grass [13] = experiment: Herbicidal effect test by soil treatment; format: in vivo; conditions: 1.6 g/a, 3 weeks after treatment
# In short: as §1
# corn (Zea mays) [14] = experiment: Herbicidal effect test by soil treatment; format: in vivo; conditions: 1.6 g/a, 3 weeks after treatment
# In short: as §1
# [15] = test system: Triticum aestivum (wheat); experiment: Herbicidal effect test by soil treatment; format: in vivo; conditions: 1.6 g/a, 3 weeks after treatment
# In short: as §1
# Echinochloa crus-galli [16] = experiment: Herbicidal effect test in submerged condition by treatment during weed-growth stage (1); format: in vivo; conditions: 0.64 g/a, treated at 1st to 2nd leaf stage, 3 weeks after treatment
# In short: (§2)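 Paddy-soil pots flooded to 4 cm water depth were sown and grown in a greenhouse at 25 to 30° C until weeds reached 1st to 2nd leaf stage. A wettable powder diluted in water to a predetermined formulation amount was applied to the water surface. Herbicidal effect was scored 3 weeks after treatment against set criteria.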
# Monochoria vaginalis [17] = experiment: as above; format: in vivo; conditions: 0.64 g/a, treated at 1st to 2nd leaf stage, 3 weeks after treatment
# In short: as §2
# Scirpus juncoides [18] = experiment: as above; format: in vivo; conditions: 0.64 g/a, treated at 1st to 2nd leaf stage, 3 weeks after treatment
# In short: as §2
# Echinochloa crus-galli [19] = experiment: Herbicidal effect test in submerged condition by treatment before weed-generation (1); format: in vivo; conditions: 0.64 g/a, water surface treated on day of sowing, 3 weeks after treatment
# In short: (§3)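 Pre-emergence water-surface application of diluted wettable-powder formulation at a predetermined rate, same day as sowing, in flooded alluvial soil (4 cm water) with transplanted 2.5-leaf rice. Grown 3 weeks at 25 to 30° C in greenhouse; rated 0–5 by herbicidal rate.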
# Monochoria vaginalis [20] = experiment: as above; format: in vivo; conditions: 0.64 g/a, water surface treated on day of sowing, 3 weeks after treatment
# In short: as §3
# Scirpus juncoides [21] = experiment: as above; format: in vivo; conditions: 0.64 g/a, water surface treated on day of sowing, 3 weeks after treatment
# In short: as §3
# Ambrosia elatior [22] = experiment: Herbicidal effect test by foliage treatment; format: in vivo; conditions: 1.6 g/a; foliage treatment after growth of 14 days; 3 weeks after treatment
# In short: (§4)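 Post-emergence foliar spray: plants raised 14 d in greenhouse (25–30° C) from seed in sterilized diluvial soil, sprayed with diluted wettable powder formulation, injury rated visually at 3 wk.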
# Setaria viridis [23] = experiment: Herbicidal effect test by foliage treatment; format: in vivo; conditions: 1.6 g/a; foliage treatment after growth of 14 days; 3 weeks after treatment
# In short: as §4
# Digitaria adscendes [24] = experiment: Herbicidal effect test by foliage treatment; format: in vivo; conditions: 1.6 g/a; foliage treatment after growth of 14 days; 3 weeks after treatment
# In short: as §4
# soybean (Glycine max) [25] = experiment: Herbicidal effect test by foliage treatment; format: in vivo; conditions: 1.6 g/a; foliage treatment after growth of 14 days; 3 weeks after treatment
# In short: as §4
# Chenopodium album [26] = experiment: Herbicidal effect test by foliage treatment; format: in vivo; conditions: 1.6 g/a; foliage treatment after growth of 14 days; 3 weeks after treatment
# In short: as §4
# Polygonum blumei [27] = experiment: Herbicidal effect test by foliage treatment; format: in vivo; conditions: 1.6 g/a; foliage treatment after growth of 14 days; 3 weeks after treatment
# In short: as §4
# Echinochloa crus-galli [28] = experiment: Herbicidal effect test by foliage treatment; format: in vivo; conditions: 1.6 g/a; foliage treatment after growth of 14 days; 3 weeks after treatment
# In short: as §4
# Stellaria media [29] = experiment: Herbicidal effect test by foliage treatment; format: in vivo; conditions: 1.6 g/a; foliage treatment after growth of 14 days; 3 weeks after treatment
# In short: as §4
# Amaranthus retroflexus [30] = experiment: Herbicidal effect test by foliage treatment; format: in vivo; conditions: 1.6 g/a; foliage treatment after growth of 14 days; 3 weeks after treatment
# In short: as §4
# Avena fatua [31] = experiment: Herbicidal effect test by foliage treatment; format: in vivo; conditions: 1.6 g/a; foliage treatment after growth of 14 days; 3 weeks after treatment
# In short: as §4
# Beta vulgaris (beet) [32] = experiment: Herbicidal effect test by foliage treatment; format: in vivo; conditions: 1.6 g/a; foliage treatment after growth of 14 days; 3 weeks after treatment
# In short: as §4
# Abutilon avicennae [33] = experiment: Herbicidal effect test by foliage treatment; format: in vivo; conditions: 1.6 g/a; foliage treatment after growth of 14 days; 3 weeks after treatment
# In short: as §4
# Black-grass [34] = experiment: Herbicidal effect test by foliage treatment; format: in vivo; conditions: 1.6 g/a; foliage treatment after growth of 14 days; 3 weeks after treatment
# In short: as §4
# corn (Zea mays) [35] = experiment: Herbicidal effect test by foliage treatment; format: in vivo; conditions: 1.6 g/a; foliage treatment after growth of 14 days; 3 weeks after treatment
# In short: as §4
# [36] = test system: Triticum aestivum (wheat); experiment: Herbicidal effect test by foliage treatment; format: in vivo; conditions: 1.6 g/a; foliage treatment after growth of 14 days; 3 weeks after treatment
# In short: as §4
# direct sown rice [37] = experiment: Herbicidal effect test by foliage treatment; format: in vivo, Oryza sativa; conditions: 1.6 g/a; foliage treatment after growth of 14 days; 3 weeks after treatment
# In short: as §4
# direct sown rice [38] = experiment: Herbicidal effect test by soil treatment; format: in vivo, Oryza sativa; conditions: 1.6 g/a, 3 weeks after treatment
# In short: as §1
smiles,measurement,setting,value
COc1cc(OC)nc(NC(=O)NS(=O)(=O)c2c(C3=NOCC(CI)O3)c(C)nn2C)n1 (centres unmarked) [Compound 6],"herbicidal effect, I: Ambrosia elatior",Ambrosia elatior [1],5 (Herbicidal rate 90% or more (almost complete death))
same,"herbicidal effect, E: Setaria viridis",Setaria viridis [2],3 (Herbicidal rate 40% or more and less than 70%)
same,"herbicidal effect, D: Digitaria adscendes",Digitaria adscendes [3],4 (Herbicidal rate 70% or more and less than 90%)
same,"herbicidal effect, c: soybean (Glycine max)",soybean (Glycine max) [4],3 (Herbicidal rate 40% or more and less than 70%)
same,"herbicidal effect, K: Chenopodium album",Chenopodium album [5],5 (Herbicidal rate 90% or more (almost complete death))
same,"herbicidal effect, L: Polygonum blumei",Polygonum blumei [6],5 (Herbicidal rate 90% or more (almost complete death))
same,"herbicidal effect, A: Echinochloa crus-galli",Echinochloa crus-galli [7],4 (Herbicidal rate 70% or more and less than 90%)
same,"herbicidal effect, M: Stellaria media",Stellaria media [8],5 (Herbicidal rate 90% or more (almost complete death))
same,"herbicidal effect, J: Amaranthus retroflexus",Amaranthus retroflexus [9],4 (Herbicidal rate 70% or more and less than 90%)
same,"herbicidal effect, F: Avena fatua",Avena fatua [10],0 (Herbicidal rate 5% or less (little effect))
same,"herbicidal effect, f: Beta vulgaris (beet)",Beta vulgaris (beet) [11],4 (Herbicidal rate 70% or more and less than 90%)
same,"herbicidal effect, H: Abutilon avicennae",Abutilon avicennae [12],3 (Herbicidal rate 40% or more and less than 70%)
same,"herbicidal effect, G: Black-grass",Black-grass [13],5 (Herbicidal rate 90% or more (almost complete death))
same,"herbicidal effect, b: corn (Zea mays)",corn (Zea mays) [14],4 (Herbicidal rate 70% or more and less than 90%)
same,"herbicidal effect, e: Triticum aestivum (wheat)",[15],4 (Herbicidal rate 70% or more and less than 90%)
same,"herbicidal effect, A: Echinochloa crus-galli",Echinochloa crus-galli [16],5 (Herbicidal rate 90% or more (almost complete death))
same,"herbicidal effect, C: Monochoria vaginalis",Monochoria vaginalis [17],5 (Herbicidal rate 90% or more (almost complete death))
same,"herbicidal effect, B: Scirpus juncoides",Scirpus juncoides [18],5 (Herbicidal rate 90% or more (almost complete death))
same,"herbicidal effect, A: Echinochloa crus-galli",Echinochloa crus-galli [19],5 (Herbicidal rate 90% or more (almost complete death))
same,"herbicidal effect, C: Monochoria vaginalis",Monochoria vaginalis [20],5 (Herbicidal rate 90% or more (almost complete death))
same,"herbicidal effect, B: Scirpus juncoides",Scirpus juncoides [21],5 (Herbicidal rate 90% or more (almost complete death))
same,"herbicidal effect, I: Ambrosia elatior",Ambrosia elatior [22],5 (Herbicidal rate 90% or more (almost complete death))
same,"herbicidal effect, E: Setaria viridis",Setaria viridis [23],5 (Herbicidal rate 90% or more (almost complete death))
same,"herbicidal effect, D: Digitaria adscendes",Digitaria adscendes [24],5 (Herbicidal rate 90% or more (almost complete death))
same,"herbicidal effect, c: soybean (Glycine max)",soybean (Glycine max) [25],4 (Herbicidal rate 70% or more and less than 90%)
same,"herbicidal effect, K: Chenopodium album",Chenopodium album [26],5 (Herbicidal rate 90% or more (almost complete death))
same,"herbicidal effect, L: Polygonum blumei",Polygonum blumei [27],5 (Herbicidal rate 90% or more (almost complete death))
same,"herbicidal effect, A: Echinochloa crus-galli",Echinochloa crus-galli [28],5 (Herbicidal rate 90% or more (almost complete death))
same,"herbicidal effect, M: Stellaria media",Stellaria media [29],5 (Herbicidal rate 90% or more (almost complete death))
same,"herbicidal effect, J: Amaranthus retroflexus",Amaranthus retroflexus [30],4 (Herbicidal rate 70% or more and less than 90%)
same,"herbicidal effect, F: Avena fatua",Avena fatua [31],3 (Herbicidal rate 40% or more and less than 70%)
same,"herbicidal effect, f: Beta vulgaris (beet)",Beta vulgaris (beet) [32],5 (Herbicidal rate 90% or more (almost complete death))
same,"herbicidal effect, H: Abutilon avicennae",Abutilon avicennae [33],5 (Herbicidal rate 90% or more (almost complete death))
same,"herbicidal effect, G: Black-grass",Black-grass [34],5 (Herbicidal rate 90% or more (almost complete death))
same,"herbicidal effect, b: corn (Zea mays)",corn (Zea mays) [35],4 (Herbicidal rate 70% or more and less than 90%)
same,"herbicidal effect, e: Triticum aestivum (wheat)",[36],4 (Herbicidal rate 70% or more and less than 90%)
same,"herbicidal effect, d: direct sown rice",direct sown rice [37],4 (Herbicidal rate 70% or more and less than 90%)
same,"herbicidal effect, d: direct sown rice",direct sown rice [38],4 (Herbicidal rate 70% or more and less than 90%)
